{
  "source": "patent US6897209B2",
  "about": "“Labelled factor XIIIa substrates” (GE Healthcare Limited, priority 1997, dated 2005)",
  "key": {"human plasma clots [1]": {"biological_target": "T1, human plasma clots (Homo sapiens, UniProt P00488)", "T1 construct": "Factor XIII is transformed into its active form Factor XIIIa by thrombin in the presence of calcium ions; from tissue; host or cells: human plasma, clotted in vitro with thrombin and calcium chloride", "T1 sequence (P00488 39-732)": "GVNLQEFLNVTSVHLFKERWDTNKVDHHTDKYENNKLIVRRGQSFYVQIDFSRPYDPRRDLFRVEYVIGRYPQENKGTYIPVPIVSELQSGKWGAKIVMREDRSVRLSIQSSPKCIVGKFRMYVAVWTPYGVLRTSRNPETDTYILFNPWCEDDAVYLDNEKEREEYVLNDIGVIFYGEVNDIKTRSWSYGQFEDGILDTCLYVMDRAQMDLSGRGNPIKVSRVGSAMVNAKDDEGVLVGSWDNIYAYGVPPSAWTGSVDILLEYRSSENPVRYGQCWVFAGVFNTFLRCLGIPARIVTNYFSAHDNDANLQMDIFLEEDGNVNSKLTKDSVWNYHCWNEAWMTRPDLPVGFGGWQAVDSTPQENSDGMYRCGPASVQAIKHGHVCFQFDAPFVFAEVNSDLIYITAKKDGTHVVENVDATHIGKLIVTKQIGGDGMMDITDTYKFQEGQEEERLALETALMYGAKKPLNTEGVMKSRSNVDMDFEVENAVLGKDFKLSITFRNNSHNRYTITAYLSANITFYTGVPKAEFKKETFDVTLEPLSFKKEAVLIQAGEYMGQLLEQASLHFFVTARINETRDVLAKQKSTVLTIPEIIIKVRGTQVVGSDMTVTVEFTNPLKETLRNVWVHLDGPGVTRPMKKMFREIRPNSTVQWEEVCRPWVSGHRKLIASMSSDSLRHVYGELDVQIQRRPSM", "test": "Incorporation into human plasma clots (in vitro plasma clot assay)", "assay_type": "biochemical"}, "human plasma clots [2]": {"system": "human plasma clots", "test": "Incorporation into human plasma clots (in vitro plasma clot assay)", "assay_type": "biochemical", "conditions": "control vials without thrombin and calcium chloride, 60 minutes"}, "Factor XIIIa": {"biological_target": "T2, Factor XIIIa (Homo sapiens, UniProt P00488)", "T2 construct": "Factor XIII is transformed into its active form Factor XIIIa by thrombin in the presence of calcium ions; from tissue; host or cells: human plasma", "T2 sequence (P00488 39-732 limits assumed)": "T1 sequence (P00488 39-732)", "test": "Factor XIIIa dependency of incorporation (dimethylcasein uptake, normal vs Factor XIII deficient plasma)", "assay_type": "biochemical", "conditions": "1 KBq/ml, 60 minutes; uptake in normal plasma minus Factor XIII deficient plasma", "description": "The assay was changed by replacing the mercaptoethanol with aprotinin at a final concentration of 2 μg/ml, and dimethylcasein (DMC) was used instead of casein."}, "[3]": {"test": "Normal rat biodistribution", "assay_type": "in vivo", "conditions": "i.v., male Wistar rats, Mean±SD n=3", "procedure,_shortened": "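Male Wistar rats (100–150 g) received radiolabelled tracer (8 MBq/ml, 0.1–0.2 ml) i.v. and were dissected mostly at 2, 15, 30, 60 and 240 min. Tissue uptake as % ID, mean±SD, n=3; urine and faeces excretion collected in metabolism cages.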"}, "[4]": {"system": "clots induced in rat inferior vena cava", "test": "Incorporation into clots induced in a rat model (rat inferior vena cava model)", "assay_type": "in vivo", "conditions": "rat IVC model", "procedure,_shortened": "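Male Wistar rats (250-350 g) were anaesthetised with 15% urethane, and compounds were injected 5 min after clot induction. Animals were killed at 60 min, and clots (about 27 mg) and tissues were weighed and counted. Uptake was given as cpm/g clot by dose/g animal and as clot-to-background ratios.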"}, "[5]": {"conditions": "compound injected 5 min post-induction, clot removed after 60 min"}},
  "data": [
    {"smiles": "CC(CNCc1ccccc1O)(CNCc1ccccc1O)CNC(=O)c1ccc(S(=O)(=O)NCCCCCN)cc1", "note": "[Compound 25, N,N′-bis-(2-hydroxybenzyl)-2-(4-N-(5-aminopentyl)amidosulphonyl)benzamidomethyl-2-methyl-propane-1,3-diamine]", "values": [
      {"measurement": "% specific uptake*", "setting": "human plasma clots [1]; % retained with thrombin − % retained no thrombin", "value": 12.9, "unit": "%"},
      {"measurement": "% retained in plasma clot assay (with thrombin)", "setting": "human plasma clots [1]; human plasma with thrombin and calcium chloride, 60 minutes, ca. 20° C.", "value": 15, "unit": "%"},
      {"measurement": "% retained in plasma clot assay (no thrombin)", "setting": "human plasma clots [2]", "value": 1.9, "unit": "%"},
      {"measurement": "% specific DMC casein uptake", "setting": "Factor XIIIa", "value": 26, "unit": "%"},
      {"measurement": "% ID Blood", "setting": "[3]; 2 min post-injection", "value": "23.0 ± 2.9", "unit": "% ID"},
      {"measurement": "% ID GI Tract", "setting": "[3]; 2 min post-injection", "value": "8.53 ± 0.66", "unit": "% ID"},
      {"measurement": "% ID Heart", "setting": "[3]; 2 min post-injection", "value": "0.74 + 0.1 % ID"},
      {"measurement": "% ID Kidney", "setting": "[3]; 2 min post-injection", "value": "5.37 ± 1.3", "unit": "% ID"},
      {"measurement": "% ID Liver", "setting": "[3]; 2 min post-injection", "value": "13.6 ± 2.47", "unit": "% ID"},
      {"measurement": "% ID Lung", "setting": "[3]; 2 min post-injection", "value": "3.42 ± 0.39", "unit": "% ID"},
      {"measurement": "% ID Muscle", "setting": "[3]; 2 min post-injection", "value": "25.7 ± 2.0", "unit": "% ID"},
      {"measurement": "% ID Urine", "setting": "[3]; 2 min post-injection", "value": "0.11 ± 0.06", "unit": "% ID"},
      {"measurement": "% ID Blood", "setting": "[3]; 15 min post-injection", "value": "3.9 ± 0.17", "unit": "% ID"},
      {"measurement": "% ID GI Tract", "setting": "[3]; 15 min post-injection", "value": "45.68 ± 4.1", "unit": "% ID"},
      {"measurement": "% ID Heart", "setting": "[3]; 15 min post-injection", "value": "0.16 + 0.01 % ID"},
      {"measurement": "% ID Kidney", "setting": "[3]; 15 min post-injection", "value": "7.13 ± 0.4", "unit": "% ID"},
      {"measurement": "% ID Liver", "setting": "[3]; 15 min post-injection", "value": "13.5 ± 0.14", "unit": "% ID"},
      {"measurement": "% ID Lung", "setting": "[3]; 15 min post-injection", "value": "1.37 ± 0.03", "unit": "% ID"},
      {"measurement": "% ID Muscle", "setting": "[3]; 15 min post-injection", "value": "8.93 ± 0.38", "unit": "% ID"},
      {"measurement": "% ID Urine", "setting": "[3]; 15 min post-injection", "value": "4.62 ± 2.9", "unit": "% ID"},
      {"measurement": "% ID Blood", "setting": "[3]; 30 min post-injection", "value": "2.12 ± 0.34", "unit": "% ID"},
      {"measurement": "% ID GI Tract", "setting": "[3]; 30 min post-injection", "value": "54.7 ± 2.09", "unit": "% ID"},
      {"measurement": "% ID Heart", "setting": "[3]; 30 min post-injection", "value": "0.1 + 0.03 % ID"},
      {"measurement": "% ID Kidney", "setting": "[3]; 30 min post-injection", "value": "5.6 ± 0.1", "unit": "% ID"},
      {"measurement": "% ID Liver", "setting": "[3]; 30 min post-injection", "value": "9.66 ± 1.65", "unit": "% ID"},
      {"measurement": "% ID Lung", "setting": "[3]; 30 min post-injection", "value": "1.17 ± 0.01", "unit": "% ID"},
      {"measurement": "% ID Muscle", "setting": "[3]; 30 min post-injection", "value": "6.43 ± 0.41", "unit": "% ID"},
      {"measurement": "% ID Urine", "setting": "[3]; 30 min post-injection", "value": "11.6 ± 2.0", "unit": "% ID"},
      {"measurement": "% ID Blood", "setting": "[3]; 60 min post-injection", "value": "1.84 ± 0.19", "unit": "% ID"},
      {"measurement": "% ID GI Tract", "setting": "[3]; 60 min post-injection", "value": "55.87 ± 2.5", "unit": "% ID"},
      {"measurement": "% ID Heart", "setting": "[3]; 60 min post-injection", "value": "0.08 + 0.03 % ID"},
      {"measurement": "% ID Kidney", "setting": "[3]; 60 min post-injection", "value": "4.24 ± 0.4", "unit": "% ID"},
      {"measurement": "% ID Liver", "setting": "[3]; 60 min post-injection", "value": "6.73 ± 0.48", "unit": "% ID"},
      {"measurement": "% ID Lung", "setting": "[3]; 60 min post-injection", "value": "0.96 ± 0.11", "unit": "% ID"},
      {"measurement": "% ID Muscle", "setting": "[3]; 60 min post-injection", "value": "4.95 ± 0.09", "unit": "% ID"},
      {"measurement": "% ID Urine", "setting": "[3]; 60 min post-injection", "value": "17.5 ± 1.7", "unit": "% ID"},
      {"measurement": "% ID Blood", "setting": "[3]; 240 min post-injection", "value": "0.62 ± 0.16", "unit": "% ID"},
      {"measurement": "% ID GI Tract", "setting": "[3]; 240 min post-injection", "value": "71.3 ± 0.7", "unit": "% ID"},
      {"measurement": "% ID Heart", "setting": "[3]; 240 min post-injection", "value": "0.02 + 0.01 % ID"},
      {"measurement": "% ID Kidney", "setting": "[3]; 240 min post-injection", "value": "3.19 ± 0.1", "unit": "% ID"},
      {"measurement": "% ID Liver", "setting": "[3]; 240 min post-injection", "value": "3.97 ± 0.53", "unit": "% ID"},
      {"measurement": "% ID Lung", "setting": "[3]; 240 min post-injection", "value": "0.21 ± 0.05", "unit": "% ID"},
      {"measurement": "% ID Muscle", "setting": "[3]; 240 min post-injection", "value": "1.3 ± 0.38", "unit": "% ID"},
      {"measurement": "% ID Urine", "setting": "[3]; 240 min post-injection", "value": "16.81 ± 0.43", "unit": "% ID"},
      {"measurement": "Clot/Blood", "setting": "[4]; 60 min", "value": 3.3},
      {"measurement": "Clot/Heart", "setting": "[4]; 60 min", "value": 5},
      {"measurement": "Clot/Liver", "setting": "[4]; 60 min", "value": 0.65},
      {"measurement": "Clot/Lung", "setting": "[4]; 60 min", "value": 1.5},
      {"measurement": "% ID/g (clot uptake)", "setting": "[4]; [5]", "value": "0.29 ± 0.09", "unit": "% ID/g"},
      {"measurement": "Relative conc (cpm/g of clot by dose/g animal)", "setting": "[4]; [5]", "value": "0.8 ± 0.2"}
    ]}
  ]
}
